The record followed here is ChEMBL document CHEMBL3593243, “Discovery of novel, potent, selective and cellular active ADC type PTP1B inhibitors via fragment-docking-oriented de novel design” (Bioorg Med Chem, 2015).

In experiment [1] the target is T1, Tyrosine-protein phosphatase non-receptor type 1 (Homo sapiens, UniProt P18031).
T1 sequence (P18031 whole entry): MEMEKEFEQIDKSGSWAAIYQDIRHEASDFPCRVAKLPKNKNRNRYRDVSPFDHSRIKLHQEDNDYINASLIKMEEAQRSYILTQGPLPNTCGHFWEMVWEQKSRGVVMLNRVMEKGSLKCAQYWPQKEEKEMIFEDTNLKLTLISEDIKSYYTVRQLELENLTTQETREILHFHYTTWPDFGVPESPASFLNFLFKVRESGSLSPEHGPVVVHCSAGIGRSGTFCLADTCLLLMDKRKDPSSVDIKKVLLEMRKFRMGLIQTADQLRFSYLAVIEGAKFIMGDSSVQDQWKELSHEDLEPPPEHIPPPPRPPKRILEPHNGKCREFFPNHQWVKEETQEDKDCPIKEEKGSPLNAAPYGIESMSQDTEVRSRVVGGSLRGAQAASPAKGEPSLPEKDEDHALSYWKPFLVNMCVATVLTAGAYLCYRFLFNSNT
Briefly: Inhibition of human PTP1B catalytic domain expressed in Escherichia coli assessed as pNPP hydrolysis measured every 30 secs for 15 mins.

Experiment [2] deals with T1, Tyrosine-protein phosphatase non-receptor type 1. Briefly: Inhibition of recombinant PTP1B (unknown origin) assessed as pNPP hydrolysis after 30 mins.
In experiment [3] the target is T2, Tyrosine-protein phosphatase non-receptor type 2 (Homo sapiens, UniProt P17706).
T2 sequence (P17706 whole entry): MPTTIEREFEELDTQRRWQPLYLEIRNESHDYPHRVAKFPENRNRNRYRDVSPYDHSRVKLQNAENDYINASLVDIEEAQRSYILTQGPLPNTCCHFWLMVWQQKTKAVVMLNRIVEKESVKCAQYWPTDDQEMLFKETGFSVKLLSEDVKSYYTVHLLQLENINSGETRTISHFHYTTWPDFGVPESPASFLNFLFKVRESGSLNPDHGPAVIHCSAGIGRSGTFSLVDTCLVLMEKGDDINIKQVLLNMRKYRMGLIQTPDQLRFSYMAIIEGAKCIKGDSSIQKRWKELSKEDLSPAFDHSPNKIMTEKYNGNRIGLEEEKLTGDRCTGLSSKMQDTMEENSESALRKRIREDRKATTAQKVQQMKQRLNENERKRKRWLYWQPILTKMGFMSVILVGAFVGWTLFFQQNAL
Briefly: Inhibition of TCPTP (unknown origin) assessed as pNPP hydrolysis after 30 mins.

The target in experiment [4] is Tyrosine-protein phosphatase non-receptor type 6 (Homo sapiens, UniProt P29350). Briefly: Inhibition of SHP1 (unknown origin) using pNPP as substrate.
Tyrosine-protein phosphatase non-receptor type 6, sequence (P29350 whole entry): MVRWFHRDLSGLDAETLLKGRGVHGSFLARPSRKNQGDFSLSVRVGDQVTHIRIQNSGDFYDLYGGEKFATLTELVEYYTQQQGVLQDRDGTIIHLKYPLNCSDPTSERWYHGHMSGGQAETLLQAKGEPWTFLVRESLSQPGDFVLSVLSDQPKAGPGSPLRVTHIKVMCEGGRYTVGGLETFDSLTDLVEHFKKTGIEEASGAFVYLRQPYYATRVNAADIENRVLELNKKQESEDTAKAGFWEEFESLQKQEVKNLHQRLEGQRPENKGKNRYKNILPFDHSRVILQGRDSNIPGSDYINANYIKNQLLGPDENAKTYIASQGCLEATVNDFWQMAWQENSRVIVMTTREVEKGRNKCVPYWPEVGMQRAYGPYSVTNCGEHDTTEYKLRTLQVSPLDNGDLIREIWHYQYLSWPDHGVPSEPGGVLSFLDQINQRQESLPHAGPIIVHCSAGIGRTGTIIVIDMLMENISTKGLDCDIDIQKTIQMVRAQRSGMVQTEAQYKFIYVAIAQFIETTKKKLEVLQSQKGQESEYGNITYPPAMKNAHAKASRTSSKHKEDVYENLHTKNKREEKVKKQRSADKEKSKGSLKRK

`NC(=O)[C@H](Cc1ccc(C(F)(F)P(=O)(O)O)cc1)NC(=O)[C@H](Cc1ccccc1)NC(=O)Cc1ccc(C(F)(F)P(=O)(O)O)cc1`: the Ki (in general, the dissociation constant of the complex between target and ligand, obtained from inhibition or displacement) in experiment [1] is 1.7 nM. Take `CCOc1cc(NS(C)(=O)=O)c(OCC)cc1CNC(=O)NCc1ccccc1`: the IC50 – broadly, the concentration needed to halve the response being measured – in experiment [2] came out at 756 nM. Still for that read-out and setting: the same measure for `CCOc1cc(NS(C)(=O)=O)c(OCC)cc1CNC(=O)Nc1ccc(OC)c(OC)c1`: 204 nM. Consider `CCOc1cc(NS(C)(=O)=O)c(OCC)cc1CNC(=O)Nc1ccc(Br)cc1`, for which the IC50 in experiment [3] turned out to be 1360 nM; in experiment [2], 212 nM; in experiment [4], 2310 nM. For the compound `CCOc1cc(NS(C)(=O)=O)c(OCC)cc1CNC(=O)Nc1ccc(C)cc1`, the IC50 was 5190 nM in experiment [3] and 309 nM in experiment [2]. `CCOc1cc(NS(C)(=O)=O)c(OCC)cc1CNC(=O)Nc1cccc(OC)c1`: in experiment [2], the IC50 is 2730 nM. Take `CCOc1cc(NS(C)(=O)=O)c(OCC)cc1CNC(=O)Nc1ccc(OC)cc1`: the IC50 amounted to 203 nM in experiment [2] and 9080 nM in experiment [4]. As for `CCOc1cc(NS(C)(=O)=O)c(OCC)cc1CNC(=O)Nc1ccccc1`, the IC50 in experiment [2] was found to be 537 nM.
